Laboratory results published in US11028095B2, “Spiro-lactam and bis-spiro-lactam NMDA receptor modulators and uses thereof” (Aptinyx Inc., priority 2016, dated 2021).
pEC50: −log10 of the molar value. Read-outs that look alike come from different tables or passages of the source.

What was measured:
Assay type in all cases: biochemical
[1] = molecular target: T1, NMDAR2A expressing HEK cell membranes (Homo sapiens, UniProt Q05586+Q12879); assay: NMDAR agonist assay, [3H]MK-801 binding, NMDAR2A; conditions: for EC50 / pEC50: [3H]MK-801 binding; for EC50: read-out: NMDAR2A: log EC50 (converted); for Emax: relative to 1 mM glycine; for pEC50: NMDAR2A: log EC50, 50 μM glutamate
T1 construct: expressed in transfected cells; host or cells: HEK cells (membrane extract)
T1 sequence (Q12879 23-1464, other chains not shown): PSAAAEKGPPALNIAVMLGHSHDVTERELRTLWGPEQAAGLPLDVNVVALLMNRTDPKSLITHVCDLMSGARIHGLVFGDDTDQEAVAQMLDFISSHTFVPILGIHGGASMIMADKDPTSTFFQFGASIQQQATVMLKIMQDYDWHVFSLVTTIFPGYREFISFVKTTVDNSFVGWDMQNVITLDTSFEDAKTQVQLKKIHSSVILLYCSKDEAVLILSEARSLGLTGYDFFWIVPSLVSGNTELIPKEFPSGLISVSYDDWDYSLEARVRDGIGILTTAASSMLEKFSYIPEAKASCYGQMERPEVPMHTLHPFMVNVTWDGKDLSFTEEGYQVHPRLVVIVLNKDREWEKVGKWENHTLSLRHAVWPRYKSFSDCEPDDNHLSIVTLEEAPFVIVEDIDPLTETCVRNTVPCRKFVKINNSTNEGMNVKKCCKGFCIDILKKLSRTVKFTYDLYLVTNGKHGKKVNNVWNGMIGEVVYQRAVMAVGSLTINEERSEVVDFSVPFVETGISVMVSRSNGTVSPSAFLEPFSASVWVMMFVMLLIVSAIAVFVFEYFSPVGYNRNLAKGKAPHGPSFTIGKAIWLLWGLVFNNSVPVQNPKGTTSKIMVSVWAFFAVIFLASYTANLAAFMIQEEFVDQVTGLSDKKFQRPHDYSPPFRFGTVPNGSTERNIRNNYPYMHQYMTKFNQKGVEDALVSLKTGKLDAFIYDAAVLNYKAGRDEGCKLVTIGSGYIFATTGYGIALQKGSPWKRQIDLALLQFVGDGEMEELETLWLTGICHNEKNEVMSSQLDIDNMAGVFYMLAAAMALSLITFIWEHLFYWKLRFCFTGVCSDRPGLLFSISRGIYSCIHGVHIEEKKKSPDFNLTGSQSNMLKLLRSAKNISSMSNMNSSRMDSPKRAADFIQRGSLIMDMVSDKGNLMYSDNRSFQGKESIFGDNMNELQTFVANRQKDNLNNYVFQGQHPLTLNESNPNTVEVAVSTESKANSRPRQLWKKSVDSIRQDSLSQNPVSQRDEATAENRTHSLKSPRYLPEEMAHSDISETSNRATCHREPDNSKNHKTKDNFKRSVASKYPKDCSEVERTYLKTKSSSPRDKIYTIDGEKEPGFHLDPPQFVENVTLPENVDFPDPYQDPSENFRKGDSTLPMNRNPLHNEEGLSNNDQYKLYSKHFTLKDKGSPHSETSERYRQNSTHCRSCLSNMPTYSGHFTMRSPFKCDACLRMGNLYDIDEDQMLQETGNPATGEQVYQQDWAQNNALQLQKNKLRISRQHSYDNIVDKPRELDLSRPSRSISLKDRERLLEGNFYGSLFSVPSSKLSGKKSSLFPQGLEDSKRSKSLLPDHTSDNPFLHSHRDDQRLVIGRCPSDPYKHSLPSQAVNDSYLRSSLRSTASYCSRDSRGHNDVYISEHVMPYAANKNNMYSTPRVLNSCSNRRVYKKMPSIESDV
Experimental: (§1) (nonequilibrium conditions).
(§2) The baseline value was determined from the best fit curve of the DPM values modeled using the GraphPad program and the log(agonist) vs. response(three parameters) algorithm was then subtracted from all points in the dataset.

[2] = molecular target: T2, NMDAR2A expressing HEK cell membranes (Homo sapiens, UniProt Q12879); assay: NMDAR agonist assay, [3H]MK-801 binding, NMDAR2A; conditions: 50 μM glutamate
T2 construct: expressed in transfected cells; host or cells: HEK cells (membrane extract)
Experimental: as §1, §2

[3] = molecular target: T3, NMDAR2B expressing HEK cell membranes (Homo sapiens, UniProt Q05586+Q13224); assay: NMDAR agonist assay, [3H]MK-801 binding, NMDAR2B; conditions: for Emax: relative to 1 mM glycine; for EC50 / pEC50: [3H]MK-801 binding; for EC50: read-out: NMDAR2B log EC50 (converted); for pEC50: NMDAR2B: log EC50, 50 μM glutamate
T3 construct: expressed in transfected cells; host or cells: HEK cells (membrane extract)
T3 sequence (Q13224 27-1484, other chains not shown): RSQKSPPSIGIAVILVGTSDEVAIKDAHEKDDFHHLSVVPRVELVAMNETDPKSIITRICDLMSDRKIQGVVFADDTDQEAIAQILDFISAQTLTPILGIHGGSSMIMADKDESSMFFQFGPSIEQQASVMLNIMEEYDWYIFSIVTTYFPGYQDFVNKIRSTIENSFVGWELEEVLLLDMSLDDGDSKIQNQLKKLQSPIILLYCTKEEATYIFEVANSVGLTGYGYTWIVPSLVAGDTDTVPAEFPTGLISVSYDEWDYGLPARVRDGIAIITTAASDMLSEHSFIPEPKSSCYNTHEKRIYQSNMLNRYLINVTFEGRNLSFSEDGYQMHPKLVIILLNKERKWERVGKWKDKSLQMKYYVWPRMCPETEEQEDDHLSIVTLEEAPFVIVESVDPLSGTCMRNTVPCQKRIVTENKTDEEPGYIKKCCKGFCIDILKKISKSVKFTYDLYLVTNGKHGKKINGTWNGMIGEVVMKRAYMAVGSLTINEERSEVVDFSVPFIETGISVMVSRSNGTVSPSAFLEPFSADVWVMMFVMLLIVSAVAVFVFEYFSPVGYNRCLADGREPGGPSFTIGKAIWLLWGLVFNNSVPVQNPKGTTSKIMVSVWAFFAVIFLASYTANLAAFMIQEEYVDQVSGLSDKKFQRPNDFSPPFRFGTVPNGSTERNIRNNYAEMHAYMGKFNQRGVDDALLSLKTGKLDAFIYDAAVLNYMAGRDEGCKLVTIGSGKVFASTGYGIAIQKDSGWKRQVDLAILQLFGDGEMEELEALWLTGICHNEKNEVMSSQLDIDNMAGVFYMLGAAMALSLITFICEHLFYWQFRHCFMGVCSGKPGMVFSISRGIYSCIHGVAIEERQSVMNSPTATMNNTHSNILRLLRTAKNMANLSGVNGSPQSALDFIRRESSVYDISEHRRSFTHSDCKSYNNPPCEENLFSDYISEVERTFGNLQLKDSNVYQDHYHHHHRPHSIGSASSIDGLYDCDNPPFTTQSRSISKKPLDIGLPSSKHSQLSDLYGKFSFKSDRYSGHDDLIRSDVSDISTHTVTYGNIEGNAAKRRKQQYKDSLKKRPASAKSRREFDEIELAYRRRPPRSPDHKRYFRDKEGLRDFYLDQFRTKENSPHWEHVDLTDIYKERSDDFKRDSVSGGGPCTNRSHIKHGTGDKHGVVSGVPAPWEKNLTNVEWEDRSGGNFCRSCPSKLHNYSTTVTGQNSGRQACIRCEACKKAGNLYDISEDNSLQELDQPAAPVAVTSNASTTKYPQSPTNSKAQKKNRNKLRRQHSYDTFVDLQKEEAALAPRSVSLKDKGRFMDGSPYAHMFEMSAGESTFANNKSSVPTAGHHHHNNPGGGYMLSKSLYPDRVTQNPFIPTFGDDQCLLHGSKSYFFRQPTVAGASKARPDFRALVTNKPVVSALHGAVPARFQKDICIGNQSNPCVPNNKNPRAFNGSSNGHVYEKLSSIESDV
Experimental: as §1, §2

[4] = molecular target: T4, NMDAR2B expressing HEK cell membranes (Homo sapiens, UniProt Q13224); assay: NMDAR agonist assay, [3H]MK-801 binding, NMDAR2B; conditions: 50 μM glutamate; for EC50: [3H]MK-801 binding, read-out: NMDAR2B log EC50 (converted)
T4 construct: expressed in transfected cells; host or cells: HEK cells (membrane extract)
T4 sequence (Q13224 27-1484, other chains not shown): as above
Experimental: as §1, §2

[5] = 50 μM glutamate, read-out: NMDAR2B: % maximal [3H]MK-801 binding relative to 1 mM glycine
[6] = 50 μM glutamate, read-out: NMDAR2A: % maximal [3H]MK-801 binding relative to 1 mM glycine
[7] = read-out: NMDAR2A: % maximal [3H]MK-801 binding relative to 1 mM glycine, 50 μM glutamate
[8] = read-out: NMDAR2B: % maximal [3H]MK-801 binding relative to 1 mM glycine, 50 μM glutamate

| EC50 ([1]; 50 μM glutamate) | Emax [3, 5] | Emax [1, 6] | EC50 ([3]; 50 μM glutamate) | Compound | other results |
| --- | --- | --- | --- | --- | --- |
| < 1 nM | < 100% | – | – | CC(C)(C)OC(=O)N1C(C(N)=O)CCC12CN(OCc1ccccc1)C2=O (single isomer, unassigned) [BG, tert-butyl 2-(benzyloxy)-6-carbamoyl-1-oxo-2,5-diazaspiro[3.4]octane-5-carboxylate] | NMDAR2A: % maximal [3H]MK-801 binding relative to 1 mM glycine [2]: + (<100%=+) |
| – | – | – | – | NC(=O)C1CCC2(CN(OCc3ccccc3)C2=O)N1 (single isomer, unassigned) [CZ, 2-(benzyloxy)-1-oxo-2,5-diazaspiro[3.4]octane-6-carboxamide] | EC50 ([2]; [3H]MK-801 binding, read-out: NMDAR2A: log EC50 (converted)): < 1 nM |
| < 1 nM | < 100% | < 100% | < 1 nM | C[C@@H](O)[C@@H](C(N)=O)N(C)CC1CCC2(CN(OCc3ccccc3)C2=O)N1C(=O)OC(C)(C)C (stereo partly drawn) [BU, tert-butyl 6-((((2S,3R)-1-amino-3-hydroxy-1-oxobutan-2-yl)(methyl)amino)methyl)-2-(benzyloxy)-1-oxo-2,5-diazaspiro[3.4]octane-5-carboxylate] | – |
| < 1 nM | < 100% | < 100% | < 1 nM | CNC(=O)C(C(C)O)N(C)CC1CCC2(CN(OCc3ccccc3)C2=O)N1 (single isomer, unassigned) [CW] | – |
| < 1 nM | – | – | – | O=C1NCC12CCC1(CNC1=O)N2Cc1ccc(F)cc1 (single isomer, unassigned) [DJ, 5-(4-fluorobenzyl)-2,5,8-triazadispiro[3.1.36.24]undecane-1,7-dione] | EC50 [4]: < 1 nM |
| – | – | – | – | NC(=O)C1CCC2(CNC2=O)N1 (single isomer, unassigned) [DB, 1-oxo-2,5-diazaspiro[3.4]octane-6-carboxamide] | EC50 [4]: < 1 nM |
| < 1 nM | < 100% | < 100% | – | NC(=O)C1CCC2(CNC2=O)N1Cc1ccc(F)cc1 (single isomer, unassigned) [DG, 5-(4-fluorobenzyl)-1-oxo-2,5-diazaspiro[3.4]octane-6-carboxamide] | – |
| – | > 100% | < 100% | < 1 nM | C[C@@H](O)[C@H](NC(=O)C1CCC2(CNC2=O)N1C)C(N)=O (single isomer, unassigned) [BC] | – |
| – | 0% | < 100% | > 100 nM | COc1ccc(CN2CC3(CC(N[C@H](C(N)=O)[C@@H](C)O)CN3)C2=O)cc1 (some centres unmarked) [CC] | – |
| < 1 nM | – | < 100% | > 100 nM | C[C@@H](O)[C@H](NC(=O)C1CCC2(CNC2=O)N1Cc1ccccc1)C(N)=O (single isomer, unassigned) [AL-1] | NMDAR2B: % maximal [3H]MK-801 binding relative to 1 mM glycine [4]: − (−=0) |
| < 1 nM | < 100% | < 100% | < 1 nM | NC(=O)C1CCC2(CNC2=O)N1Cc1ccccc1 (single isomer, unassigned) [DE, 5-benzyl-1-oxo-2,5-diazaspiro[3.4]octane-6-carboxamide] | – |
| – | < 100% | < 100% | < 1 nM | O=C1NCC12CCC1(CNC1=O)N2Cc1ccc(F)cc1 (single isomer, unassigned) [DI, 5-(4-fluorobenzyl)-2,5,8-triazadispiro[3.1.36.24]undecane-1,7-dione] | – |
| > 100 nM | < 100% | 0% | – | C[C@@H](O)[C@H](NCC1CCC2(CNC2=O)N1C(=O)OC(C)(C)C)C(N)=O (some centres unmarked) [BK] | – |
| < 1 nM | < 100% | < 100% | < 1 nM | NC(=O)C1CCC2(CN(OCc3ccccc3)C2=O)N1 (single isomer, unassigned) [CY, 2-(benzyloxy)-1-oxo-2,5-diazaspiro[3.4]octane-6-carboxamide] | – |
| < 1 nM | > 100% | < 100% | < 1 nM | C[C@@H](O)[C@@H](C(=O)N(C)C)N(C)CC1CCC2(CN(OCc3ccccc3)C2=O)N1C(=O)OC(C)(C)C (some centres unmarked) [BW] | – |
| > 100 nM | 0% | – | > 100 nM | CC(C)(C)OC(=O)N1C2(CCC13CNC3=O)CNC2=O (centres unmarked) [AA-1, tert-butyl 1,7-dioxo-2,5,8-triazadispiro[3.1.36.24]undecane-5-carboxylate] | NMDAR2A: % maximal [3H]MK-801 binding relative to 1 mM glycine [2]: − (−=0) |
| > 100 nM | 0% | 0% | > 100 nM | CNC(=O)[C@@H](NCC1CCC2(CN(OCc3ccccc3)C2=O)N1C(=O)OC(C)(C)C)[C@@H](C)O (single isomer, unassigned) [BM] | – |

| EC50 ([1]; 50 μM glutamate) | Emax [3, 5] | Emax [1, 6] | EC50 ([3]; 50 μM glutamate) | Compound | other results |
| --- | --- | --- | --- | --- | --- |
| – | < 100% | < 100% | – | COc1ccc(CN2CC3(C[C@H](C(N)=O)CN3CC(C)C)C2=O)cc1 (some centres unmarked) [CJ] | – |
| > 100 nM | > 100% | – | – | CC(O)C(C(N)=O)N(C)CC1CCC2(CNC2=O)N1 (single isomer, unassigned) [CU] | NMDAR2A: % maximal [3H]MK-801 binding relative to 1 mM glycine [2]: − (−=0) |
| < 1 nM | < 100% | < 100% | < 1 nM | NC(=O)C1CCC2(CNC2=O)N1 (single isomer, unassigned) [DA, 1-oxo-2,5-diazaspiro[3.4]octane-6-carboxamide] | – |
| < 1 nM | < 100% | < 100% | < 1 nM | CNC(=O)C(NCC1CCC2(CN(OCc3ccccc3)C2=O)N1)C(C)O (single isomer, unassigned) [CO] | – |
| – | – | – | – | CN1C2(CCC13CNC3=O)CNC2=O (centres unmarked) [AB-3, 5-methyl-2,5,8-triazadispiro[3.1.36.24]undecane-1,7-dione] | pEC50 [1]: < 7.00; Emax [1, 7]: 0%; pEC50 [3]: < 7.00; Emax [3, 8]: 0% |
| > 100 nM | < 100% | – | < 1 nM | CC(O)C(NCC1CCC2(CN(OCc3ccccc3)C2=O)N1)C(N)=O (single isomer, unassigned) [CK] | NMDAR2A: % maximal [3H]MK-801 binding relative to 1 mM glycine [2]: − (−=0) |
| < 1 nM | < 100% | < 100% | < 1 nM | CC(O)C(NCC1CCC2(CNC2=O)N1)C(N)=O (single isomer, unassigned) [CM] | – |
| – | 0% | < 100% | > 100 nM | CC(C)C(=O)N1C[C@@H](C(N)=O)C[C@]12CNC2=O [AT, (4R,7S)-5-isobutyryl-1-oxo-2,5-diazaspiro[3.4]octane-7-carboxamide] | – |
| > 100 nM | 0% | 0% | > 100 nM | CNC(=O)[C@@H](NCC1CCC2(CNC2=O)N1C(=O)OC(C)(C)C)[C@@H](C)O (some centres unmarked) [BP] | – |
| – | – | – | – | CC(C)CN1C2(CCC13CNC3=O)CNC2=O (centres unmarked) [AE, 5-isobutyl-2,5,8-triazadispiro[3.1.36.24]undecane-1,7-dione] | pEC50 [1]: < 7.00; Emax [1, 7]: 0%; pEC50 [3]: < 7.00; Emax [3, 8]: 0% |
| < 1 nM | > 100% | < 100% | < 1 nM | CC(C)CN1C(C(N)=O)CCC12CNC2=O (single isomer, unassigned) [DC, 5-isobutyl-1-oxo-2,5-diazaspiro[3.4]octane-6-carboxamide] | – |
| < 1 nM | – | – | – | COc1ccc(CN2CC3(CC(N[C@H](C(N)=O)[C@@H](C)O)CN3)C2=O)cc1 (some centres unmarked) [CD] | – |
| > 100 nM | 0% | 0% | > 100 nM | C[C@@H](O)[C@H](NCC1CCC2(CN(OCc3ccccc3)C2=O)N1C(=O)OC(C)(C)C)C(N)=O (some centres unmarked) [BI] | – |
| – | < 100% | < 100% | < 1 nM | COc1ccc(CN2C[C@@]3(C[C@H](C(N)=O)CN3CC(C)C)C2=O)cc1 [CI, (4S,7S)-5-isobutyl-2-(4-methoxybenzyl)-1-oxo-2,5-diazaspiro[3.4]octane-7-carboxamide] | – |
| – | – | – | < 1 nM | C[C@@H](O)[C@H](NCC1CCC2(CNC2=O)N1C(=O)OC(C)(C)C)C(N)=O (some centres unmarked) [BL] | – |
| > 100 nM | 0% | 0% | > 100 nM | COc1ccc(CN2CC3(CC(N[C@H](C(N)=O)[C@@H](C)O)CN3C(=O)OC(C)(C)C)C2=O)cc1 (stereo partly drawn) [CA, tert-butyl 7-(((2S,3R)-1-amino-3-hydroxy-1-oxobutan-2-yl)amino)-2-(4-methoxybenzyl)-1-oxo-2,5-diazaspiro[3.4]octane-5-carboxylate] | – |
| < 1 nM | – | < 100% | > 100 nM | CC(C)C(=O)N1C2(CCC13CNC3=O)CNC2=O (single isomer, unassigned) [AG, 5-isobutyryl-2,5,8-triazadispiro[3.1.36.24]undecane-1,7-dione] | NMDAR2B: % maximal [3H]MK-801 binding relative to 1 mM glycine [4]: − (−=0) |

| Compound | EC50 ([1]; 50 μM glutamate) | Emax [3, 5] | Emax [1, 6] | EC50 ([3]; 50 μM glutamate) | other results |
| --- | --- | --- | --- | --- | --- |
| COc1ccc(CN2CC3(CC(N[C@H](C(=O)O)[C@@H](C)O)CN3C(=O)OC(C)(C)C)C2=O)cc1 (single isomer, unassigned) [CE, (5-(tert-butoxycarbonyl)-2-(4-methoxybenzyl)-1-oxo-2,5-diazaspiro[3.4]octan-7-yl)-L-threonine] | > 100 nM | > 100% | 0% | < 1 nM | – |
| COc1ccc(CN2CC3(CC(N[C@H](C(=O)O)[C@@H](C)O)CN3C(=O)OC(C)(C)C)C2=O)cc1 (stereo partly drawn) [CF, (5-(tert-butoxycarbonyl)-2-(4-methoxybenzyl)-1-oxo-2,5-diazaspiro[3.4]octan-7-yl)-L-threonine] | > 100 nM | < 100% | 0% | < 1 nM | – |
